In patent US20070041915A1, “Use of a biguanide derivative for protecting skin against uvb radiation” (PHARMAMENS, priority 2003, published 2007):

Key:
[1] = cited from earlier work
[2] = tested on: Langerhans cells; test: Protective activity against UVB-induced immunosuppressive photo effect (depletion of Langerhans cells) on survival-maintained human skin explants, anti-CD1a labelling; format: cell-based; settings: histology and immunolabelling of Langerhans cells 24 hours after irradiation; preventive application
Protocol: The purpose of this study is to evidence the protective activity of metformin against an immunosuppressive photo effect (depletion of Langerhans cells) induced by UVB radiation on a survival-maintained human skin model.
The immunosuppressive photo activity induced by UVB is, assessed by counting the number of Langerhans cells in a separated epidermis and in tissue sections after anti-CDla labelling.
27 skin explants were prepared and maintained in-survival in a culture medium. They were divided among 9 batches of three explants: three reference batches, three excipient batches and three ointment batches containing 1% metformin (formulation example 3).
3 batches (reference, excipient and ointment) were exposed to UVB radiation of 4 J/cm^2, three batches (reference, excipient and ointment) to UVB radiation of 6 J/cm^2 and the three last batches were placed in darkness during the time of irradiation.
Daily application of the ointment was 4 mg per explant for 3 days before irradiation.
Analysis of the reference and treated explants was performed 24 h after irradiation.
Anti-CDla immunolabelling of Langerhans cells was made in the separated epidermis and in tissue sections.

CN(C)C(=N)N=C(N)N [metformin]
toxicity ([1]; at hypoglycaemic doses): absence of toxicity | chronic toxicity ([1]; in vivo): practically zero | tolerance ([1]; in vivo): good | protective activity against UVB [2]: protective action
